Where “and” joins values, the source holds several entries; their conditions need not be identical. Equal entries are not always repeated. Where two headings read alike, the source gives them in different places. Where a SMILES comes first, the peptide text is derived from it. Where no end group is shown, it is not given here. The star is where a group is joined. Biotin = O=C1N[C@H]2[C@H](CS[C@H]2CCCCC(=O)*)N1

The results in this text go back to article PMC5535168 (Toxins, 2017).

The test system of one experiment is mAb AVR1675. It is filed as binding, mouse.
For the next experiment, the system named is AVR1675 mAb. It is filed as binding, mouse.
Experiment [1] addresses AVR1675 (LFG2 3F3:3D10 IgG1 kappa) (mouse). Description: ELISA. A general note: In an ELISA, binding on a coated surface is turned into a signal by an enzyme label.

Chain of AVR1675 (LFG2 3F3:3D10 IgG1 kappa) (mouse) (heavy, as listed by the source): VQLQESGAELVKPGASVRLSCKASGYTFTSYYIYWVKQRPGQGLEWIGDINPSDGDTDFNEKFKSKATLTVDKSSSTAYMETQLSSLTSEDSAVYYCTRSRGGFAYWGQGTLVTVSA

As a reminder, the Kd is the constant that tells how readily two partners part at equilibrium. Turning to `CC[C@H](C)[C@H](NC(=O)[C@H](CCC(=O)O)NC(=O)[C@H](CC(=O)O)NC(=O)[C@H](CCC(N)=O)NC(=O)[C@H](Cc1c[nH]cn1)NC(=O)[C@@H](N)[C@@H](C)O)C(=O)N[C@@H](Cc1ccc(O)cc1)C(=O)N[C@@H](CCC(=O)O)C(=O)N[C@@H](CCC(N)=O)C(=O)N[C@@H](CCCCNC(=O)CCCC[C@@H]1SC[C@@H]2NC(=O)N[C@@H]21)C(=O)O` [Native LF core sequence] (H-THQDEIYEQK(Biotin)-OH), in the experiment with mAb AVR1675, the “% R of Consensus” value came to 14% and the “Response (nm)” value came to 0.7024 nm. Further, the Kd at mAb AVR1675 (read-out: KD (M) *) was above 1e-07 M. Consider `CC[C@H](C)[C@H](NC(=O)[C@H](CC(N)=O)NC(=O)[C@@H]1CCCN1)C(=O)N[C@@H](C)C(=O)N[C@@H](CCC(=O)O)C(=O)N[C@@H](CCC(N)=O)C(=O)N[C@@H](Cc1ccc(O)cc1)C(=O)N[C@H](C(=O)N[C@@H](Cc1c[nH]cn1)C(=O)N[C@@H](CCC(N)=O)C(=O)N[C@@H](CC(=O)O)C(=O)N[C@@H](CCC(=O)O)C(=O)N[C@H](C(=O)N[C@@H](Cc1ccc(O)cc1)C(=O)N[C@@H](CCC(=O)O)C(=O)N[C@@H](CCC(N)=O)C(=O)N[C@H](C(=O)N[C@@H](Cc1c[nH]cn1)C(=O)N[C@@H](CO)C(=O)N[C@@H](CCCCN)C(=O)NCC(=O)N[C@@H](CC(C)C)C(=O)N[C@@H](Cc1ccc(O)cc1)C(=O)N[C@H](C(=O)N1CCC[C@H]1C(=O)N[C@@H](CCC(=O)O)C(=O)N[C@@H](CO)C(=O)N[C@@H](CCCNC(=N)N)C(=O)NCC(=O)NCC(=O)NCC(=O)N[C@@H](CO)C(=O)N[C@@H](CCCCNC(=O)CCCC[C@@H]1SC[C@@H]2NC(=O)N[C@@H]21)C(=O)O)C(C)C)C(C)C)[C@@H](C)CC)[C@@H](C)O` [Native LF extended sequence], for which, in the experiment on mAb AVR1675, the “% R of Consensus” value is 14% and the “Response (nm)” value is given as 0.7024 nm. Besides, the Kd on mAb AVR1675 (read-out: KD (M) *) is above 1e-07 M. Turning to `CC[C@H](C)[C@H](NC(=O)[C@H](CCC(=O)O)NC(=O)[C@H](CC(=O)O)NC(=O)[C@H](CCCCN)NC(=O)[C@H](Cc1ccccc1)NC(=O)[C@@H](N)[C@@H](C)O)C(=O)NCC(=O)NCC(=O)NCC(=O)N[C@@H](CO)C(=O)N[C@@H](CCCCNC(=O)CCCC[C@@H]1SC[C@@H]2NC(=O)N[C@@H]21)C(=O)O` [φC8-derived Reference Sequence] (H-TFKDEIGGGSK(Biotin)-OH; N-terminus and C-terminus assumed), in the experiment on mAb AVR1675, the “% R of Consensus” value amounted to 100%; the “Binding relative to the LF-sequence derived oligopeptides” value is on record as “seven-fold higher binding”; the “R (binding response, running text)” value is given as 4.84 nm; the “Response (nm)” value is reported as 4.8387 nm. For the same molecule, the Kd at mAb AVR1675 (read-out: KD (M) *) turned out to be 1.39e-08 M. The Kd at mAb AVR1675 (read-out: KD (equilibrium affinity constant)) came out at 9.97e-09 M. TVRD D Q I [φD7]: the “Phage ELISA Reactivity (class)” value with AVR1675 mAb is “High (OD 1.78) (key: High = OD > 1.0; Intermediate = OD 0.5–1.0; Low = OD < 0.5)”. Still for that read-out and setting: under TVRD EP L [φE12] stands “High (OD 1.70) (key: High = OD > 1.0; Intermediate = OD 0.5–1.0; Low = OD < 0.5)”. As to TVRDEPLGGGS (not fully specified) [phage-displayed peptide T-V-R-D-E-P-L (phage clone φE12)], the OD (phage ELISA reactivity) in experiment [1] worked out at 1.7 OD. Consider TVLDDVAGGGS (not fully specified) [phage-displayed peptide T-V-L-D-D-V-A (phage clone φC2)], for which the OD (phage ELISA reactivity) in experiment [1] is 0.36 OD.

On to TFLDDAPGGGS (not fully specified) [phage-displayed peptide T-F-L-D-D-A-P (phage clone φE2)], for which, in experiment [1], the OD (phage ELISA reactivity) turned out to be 1.22 OD. Still for that read-out and setting: under TYKDDIRGGGS (not fully specified) [phage-displayed peptide T-Y-K-D-D-I-R (phage clones φB5 and φD2)] stands 1.65 OD and 1.78 OD. Same read-out and setting: as for TVRDDQIGGGS (not fully specified) [phage-displayed peptide T-V-R-D-D-Q-I (phage clone φD7)], the figure is 1.78 OD; as for TWRDDIPGGGS (not fully specified) [phage-displayed peptide T-W-R-D-D-I-P (phage clone φD8)], 0.79 OD. In experiment [1], TFKDDIHGGGS (not fully specified) [phage-displayed peptide T-F-K-D-D-I-H (phage clone φC9)] registered an OD (phage ELISA reactivity) of 1.33 OD.

With TFRDEPMGGGS (not fully specified) [phage-displayed peptide T-F-R-D-E-P-M (phage clone φB9)], the OD (phage ELISA reactivity) in experiment [1] was determined as 1.71 OD. Still for that read-out and setting: as for TFKDDLFGGGS (not fully specified) [phage-displayed peptide T-F-K-D-D-L-F (phage clone φC7)], the figure is 1.56 OD; as for TFKDDGYGGGS (not fully specified) [phage-displayed peptide T-F-K-D-D-G-Y (phage clone φD4)], 0.08 OD; as for TYLDDLYGGGS (not fully specified) [phage-displayed peptide T-Y-L-D-D-L-Y (phage clones φB6 and φD11)], 1.77 OD and 1.7 OD.

As to TYRDDPPGGGS (not fully specified) [phage-displayed peptide T-Y-R-D-D-P-P (phage clone φE5)], in experiment [1], the OD (phage ELISA reactivity) was 1.55 OD.
